# Laboratory results as given in US20240239792A1, “MODULATORS OF BCL-2 OR BCL-2/BCL-XL AND USES THEREOF” (APPICINE THERAPEUTICS (HK) LIMITED, priority 2021, published 2024).
# How the values were obtained:
# [1] = biological target: T1, BCL-2 (Homo sapiens, UniProt P10415); experiment: HTRF BCL-2/BAK assay (Cisbio); type: binding; conditions: recombinant human Tag1-BCL-2 2 nM, Tag2-BAK 10 nM
# T1 construct: purchased Cisbio 63ADK000CB01PEG
# Method: (§1) Then the pre-mixed anti-Tag1-Eu^3+ and anti-tag2-XL665 were added to the plate and further incubated at room temperature for another 2 hours. The signals ([…]) were read on Envision 2104 instrument. The IC50 for each compound was derived from fitting the signal of 665/615 nM to the increasing compound concentration.
# (§2) Using the above assays, the following compounds were tested.
# [2] = biological target: T2, BCL-XL (Homo sapiens, UniProt Q07817); experiment: HTRF BCL-XL/BAK assay (Cisbio); type: binding; conditions: recombinant human Tag1-BCL-XL 2 nM, Tag2-BAK 5 nM
# T2 construct: purchased Cisbio 63ADK000CB04PEG
# Method: as §1, §2
# [3] = biological target: T3, CYP2C9 (Homo sapiens, UniProt P11712); experiment: CYP2C9 activity assay in human liver microsomes, substrate diclofenac; type: in vitro ADME; conditions: probe diclofenac, test compound 1 μM, 37° C. 10 min, read-out: Inhibition rate (%) against CYP2C9 Enzyme
# T3 construct: from tissue; host or cells: human liver microsomes
# Method: In this assay, several exemplary compounds of the present disclosure and a control compound (Venetoclax) were used as the test compounds. In general, the assay was conducted by the following steps: • 1. The solution of test compound, human liver microsomes solution, and substrate (diclofenac) solution were mixed in a 96-well assay plate on ice to, and the final concentration of each test compound is 1 μM; • 2. The 96-well assay plate and NADPH solution were pre-incubated at 37° C. for 5 minutes; • 3. NADPH solution was added to into the assay plates to initiate the reaction; • 4. The assay plate was incubated at 37° C. for 10 min; • 5. The reaction was stopped; and after quenching, a portion of the supernatant was taken from each well for LC/MS analysis; • 6. The inhibition rate was calculated by the following equation: Inhibition rate (%)=(1−Valuetest/Valuecontrol)×100%, where Valuetest refers to the LC/MS data obtained from wells with test compounds and Valuecontrol refers to the LC/MS data obtained from wells without test compound.
# [4] = tested on: DOHH2 cells; experiment: CellTiter-Glo cell proliferation assay, DOHH2 cells; type: cell-based; conditions: Homo sapiens, DOHH-2, 72 hours
# How it was run: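 DOHH2 cells seeded in DMEM + 10% FBS, exposed to serially diluted compound for 72 h at 37 °C, 5% CO2. Viability read by CellTiter-Glo luminescence; GI50 calculated.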
# [5] = tested on: RS4;11 subcutaneous xenograft tumor; experiment: In vivo pharmacodynamic study, NOD/SCID RS4;11 subcutaneous xenograft tumor model; parameters: species or system NOD/SCID female mouse; conditions: 50 mg/kg; p.o.; q.d.; after 20 days dosing
# Method: In general, NOD/SCID RS4;11 subcutaneous xenograft tumor model was established by inoculating 5*10^6/0.1 ml/mouse subcutaneously in the right back of the NOD/SCID female mouse. The animals were checked daily for any effects of treatments on behaviors such as mobility, food and water consumption, body weight gain/loss, eyes, hairs and any other abnormalities. Mortality and clinical signs observed during the study were recorded in the raw data. Animal weight and tumor size were measured every two days during the study. Tumor volume (TV) was calculated as: TV=0.5*a*b^2, wherein a and b represent the measured length and width of tumor, respectively. Relative tumor proliferation inhibition rate (TGIRTV (%)), as an indication of anti-tumor effectiveness, was calculated as: TGIRTV (%)=(1−TRTV/CRTV)*100%, wherein TRTV and CRTV were relative tumor volume (RTV) in treatment group and vehicle control group, respectively. RTV was calculated as: RTV=Vt/V0, wherein Vt and V0 represented the tumor volume measured on day t after dosing and on the first day of dosing. At the end of last dosing, plasma and tumor tissue were collected, weighed, and photographed according to requirements of the study protocol.
# The TGIRTV(%) values after 20 days dosing were shown in Table 5 below, where “+++” represented TGIRTV(%)≥[…]; “++” represented 30%<TGIRTV(%)<80%. p.o. stands for “per os”; I.P. stands for “intraperitoneal”; q.d. refers to “once daily”.
# T2 sequence (Q07817 whole entry): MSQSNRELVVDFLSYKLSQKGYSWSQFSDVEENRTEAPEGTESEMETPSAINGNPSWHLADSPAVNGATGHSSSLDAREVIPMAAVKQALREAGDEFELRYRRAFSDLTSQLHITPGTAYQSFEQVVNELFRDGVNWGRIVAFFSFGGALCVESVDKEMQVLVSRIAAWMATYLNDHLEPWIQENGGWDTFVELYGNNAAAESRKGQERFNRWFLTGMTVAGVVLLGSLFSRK
# T3 sequence (P11712 whole entry): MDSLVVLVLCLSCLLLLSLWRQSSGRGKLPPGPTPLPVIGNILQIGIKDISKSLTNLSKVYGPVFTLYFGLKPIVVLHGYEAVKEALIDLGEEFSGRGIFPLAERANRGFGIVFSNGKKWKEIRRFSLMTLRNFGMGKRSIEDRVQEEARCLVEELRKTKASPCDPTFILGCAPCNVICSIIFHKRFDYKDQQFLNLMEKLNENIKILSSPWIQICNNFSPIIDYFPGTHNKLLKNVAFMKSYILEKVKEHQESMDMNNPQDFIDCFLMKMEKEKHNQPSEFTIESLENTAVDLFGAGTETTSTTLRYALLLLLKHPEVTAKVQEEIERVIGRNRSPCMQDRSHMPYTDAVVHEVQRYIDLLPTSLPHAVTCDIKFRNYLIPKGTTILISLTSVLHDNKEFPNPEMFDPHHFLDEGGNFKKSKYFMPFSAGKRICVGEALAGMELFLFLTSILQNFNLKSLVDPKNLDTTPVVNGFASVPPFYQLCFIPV
# T1 sequence (P10415 whole entry): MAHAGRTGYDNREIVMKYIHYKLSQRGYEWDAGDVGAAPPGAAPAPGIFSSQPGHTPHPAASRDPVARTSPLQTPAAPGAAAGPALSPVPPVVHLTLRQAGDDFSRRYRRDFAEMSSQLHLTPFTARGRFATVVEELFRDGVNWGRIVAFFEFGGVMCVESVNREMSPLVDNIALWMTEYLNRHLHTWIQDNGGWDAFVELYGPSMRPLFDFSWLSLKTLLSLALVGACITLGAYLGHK
SMILES,IC50 [1] [nM],IC50 [2] [nM],"inhibition at 10 min, 1 µM [3] [%]",GI50 [4] [nM],TGIRTV(%) [5]
"O=C(NS(=O)(=O)c1ccc(NCC2CC3(CCN(CC(F)F)CC3)C2)c([N+](=O)[O-])c1)c1ccc(N2CCN([C@@H]3CCCCc4c(Cl)cccc43)CC2)cc1Oc1cnc2[nH]ccc2c1 [Compound 113, (R)-2-((1H-pyrrolo[2,3-b]pyridin-5-yl)oxy)-4-(4-(1-chloro-6,7,8,9-tetrahydro-5H-benzo[7]annulen-5-yl)piperazin-1-yl)-N-((4-(((7-(2,2-difluoroethyl)-7-azaspiro[3.5]nonan-2-yl)methyl)amino)-3-nitrophenyl)sulfonyl)benzamide]",< 20,20 to 200,< 30,< 50,+++ (TGIRTV(%)≥800)
"O=C(NS(=O)(=O)c1ccc(NCC2CC3(CCN(CCF)CC3)C2)c([N+](=O)[O-])c1)c1ccc(N2CCN([C@@H]3CCCCc4c(Cl)cccc43)CC2)cc1Oc1cnc2[nH]ccc2c1 [Compound 114, (R)-2-((1H-pyrrolo[2,3-b]pyridin-5-yl)oxy)-4-(4-(1-chloro-6,7,8,9-tetrahydro-5H-benzo[7]annulen-5-yl)piperazin-1-yl)-N-((4-(((7-(2-fluoroethyl)-7-azaspiro[3.5]nonan-2-yl)methyl)amino)-3-nitrophenyl)sulfonyl)benzamide]",< 20,< 20,< 30,< 50,+++ (TGIRTV(%)≥800)
